{"source": "patent US20230138246A1", "about": "“USE OF DIHYDROBERBERINE OR ITS DERIVATIVES FOR ANTI-AGING” (NANJING NUTRABUILDING BIO-TECH CO., LTD., priority 2021, published 2023)", "key": {"[1]": {"system": "lamin A", "assay": "lamin A mRNA expression by quantitative PCR in AG01972 cells", "assay_type": "cell-based, human", "settings": "48 h", "description": "(§1) The AG01972 primary HGPS cell line was obtained from Coriell Cell Repositories (New Jersey, USA). Human dermal fibroblasts (HDF) were isolated from juvenile foreskins and termed 2DD was also used. AG01972 cells were cultured in T75 tissue culture treated flasks (Fisher, UK) containing Dulbecco's […]+Glutamax (Invitrogen, UK), supplemented with 15% fetal calf serum and 1% penicillin/streptomycin (Invitrogen) in an humidified, 37° C., 5% CO2/95% air incubator. The cells were passaged twice weekly. Cells were plated at a density of 2×10^5 into 9 cm dishes containing 13 mm diameter glass coverslips. Six hours after seeding, the AG01972 cells were treated with 0.1% dimethyl sulfoxide, different concentrations of DHB. DHB treatment was repeated 24 h after the initial treatment. The cells were analyzed after 48 h of treatment.\n(§2) Total RNA was isolated using a RNeasy Micro extraction kit according to the manufacturer's protocol. An on-column DNase I digestion was performed to avoid genomic DNA amplification. […] The quantitative PCR analysis was performed following the manufacturers' instructions.\n(§3) Quantification of gene expression was based on the DeltaCt Method and normalized on 18S expression. […]\n(§4) The protein levels of A-type lamins and mRNA expressions of lamin A and progerin were measured 48 h after DHB treatment on AG01972 cells. […]"}, "[2]": {"system": "progerin", "assay": "progerin protein level by western blot in AG01972 cells", "assay_type": "cell-based, human", "settings": "5 μmol/L DHB", "description": "(§5) Whole-cell lysates of AG01972 cells and 2DD cells were collected, separated by SDS polyacrylamide gel electrophoresis, and transferred onto polyvinylidene fluoride membrane using the liquid transfer method. The blots were blocked in 10% skim milk in Tween 0.1% tris-buffered saline 1×1 h at room temperature. The membranes were incubated during the night at 4° C. Antigen-antibody binding was detected using horseradish peroxidase-conjugated species-specific secondary antibodies, followed by enhanced chemiluminescence western blotting detection reagents. The western blot results were quantified using ImageJ software. FIG. 2a is a graph of protein levels of lamin A and progerin in AG01972 cells of DHB supplemented group and non-supplemented group. FIG. 2b is a graph of protein levels of lamin A and progerin in 2DD cells of DHB supplemented group and non-supplemented group."}, "[3]": {"system": "lamin A", "assay": "lamin A mRNA expression by quantitative PCR in 2DD cells", "assay_type": "cell-based, human", "settings": "5 μmol/L DHB", "description": "as §1, §2, §3, §4"}, "[4]": {"system": "2BS cells", "assay": "senescence-associated β-galactosidase (SA-β-gal) assay in 2BS cells", "assay_type": "cell-based, human", "settings": "2BS cells PD45, 0.300 μg/ml DHB; PD 45-DMEM group about 55%, PD 45 group about 60%", "description": "Human diploid fibroblast 2BS and WI38 cells were isolated from fetal lung fibroblast tissue. These cell lines were purchased from commercially available sources. Cells were grown in Dulbecco's Modification Eagle's Minimum Essential Medium (DMEM, Life Technologies Inc.) supplemented with 10% fetal bovine serum (FBS; Gibco), 2 mm glutamine, 100 U/ml penicillin, and 100 μg/ml streptomycin, in a humidified atmosphere with 5% CO2 at 37° C. These cells were considered as young at PD30 or below and fully senescent at PD50 or above Senescence-associated β-galactosidase (SA-β-gal) assay: 2B S cells (PD45) grown in DMEM with/without 0.300 μg/ml DHB concentration were stained according to the method of Dimri with minor modifications (Dimri, Lee et al. 1995). […] The average value of the percentage of SA-β-gal-positive cells for each set of samples was calculated based on three independent experiments. […] FIG. 3a is a graph of effect of DHB at different concentrations on the proliferation of PD45 2BS cells and WI38 cells measured by MTT-assay. […] FIG. 3d is a graph of quantification of SA-β-gal-positive cell rate of 2BS cells. Quantification analysis of SA-β-gal in FIG. 3d is shown that DHB (about 9%) could delay or reverse the population senescence of 2BS cells remarkably, as compared to the PD 45-DMEM group (about 55%) and PD 45 group (about 60%)."}, "[5]": {"system": "WI38 cells", "assay": "cell proliferation (CCK-8) of PD45 WI38 cells", "assay_type": "cell-based, human", "description": "(§6) Human diploid fibroblast 2BS and WI38 cells were isolated from fetal lung fibroblast tissue. These cell lines were purchased from commercially available sources. Cells were grown in Dulbecco's Modification Eagle's Minimum Essential Medium (DMEM, Life Technologies Inc.) supplemented with 10% fetal bovine serum (FBS; Gibco), 2 mm glutamine, 100 U/ml penicillin, and 100 μg/ml streptomycin, in a humidified atmosphere with 5% CO2 at 37° C. These cells were considered as young at PD30 or below and fully senescent at PD50 or above Cell proliferation was assayed using the CCK-8 method. […] The absorbance values of each well were measured at day 0 (4 h after plating) and on days 1, 2, 3, 4, 5, and 6. […] At the indicated points, cells were harvested with 10% CCK-8 for one hour, and the absorbance was measured at 490 nm. Each data point was measured five times, and each curve was repeated more than three times. […] FIG. 3a is a graph of effect of DHB at different concentrations on the proliferation of PD45 2BS cells and WI38 cells measured by […]. […] FIG. 3d is a graph of quantification of SA-β-gal-positive cell rate of 2BS cells. Quantification analysis of SA-β-gal in FIG. 3d is shown that DHB (about 9%) could delay or reverse the population senescence of 2BS cells remarkably, as compared to the PD 45-DMEM group (about 55%) and PD 45 group (about 60%)."}, "[6]": {"settings": "compared with berberine (BBR), Feng et al. 2015; cited from earlier work"}, "[7]": {"system": "lamin A", "assay": "lamin A protein level by western blot in 2DD cells", "assay_type": "cell-based, human", "settings": "5 μmol/L DHB", "description": "as §5"}, "[8]": {"system": "2BS cells", "assay": "cell proliferation (CCK-8) of PD45 2BS cells", "assay_type": "cell-based, human", "description": "as §6"}, "[9]": {"system": "progerin", "assay": "progerin mRNA expression by quantitative PCR in AG01972 cells", "assay_type": "cell-based, human", "settings": "48 h", "description": "as §1, §2, §3, §4"}, "[10]": {"system": "lamin A", "assay": "lamin A protein level by western blot in AG01972 cells", "assay_type": "cell-based, human", "settings": "5 μmol/L DHB", "description": "as §5"}, "[11]": {"settings": "different concentrations of DHB, normalized on 18S"}}, "data": [{"compound": "COc1ccc2c(c1OC)CN1CCc3cc4c(cc3C1=C2)OCO4", "note": "[DHB, Dihydroberberine]", "values": [{"measurement": "concentration of maximum effect on lamin A mRNA expression", "setting": "[1]", "result": 5, "unit": "µmol/L"}, {"measurement": "lamin A mRNA expression compared with untreated cells", "setting": "[1]; [11]", "result": "dose-dependent decrease"}, {"measurement": "progerin protein content (western blot) compared with untreated cells", "setting": "[2]", "result": "significant decrease in progerin content"}, {"measurement": "lamin A mRNA expression", "setting": "[3]", "result": "decrease in lamin A mRNA expression"}, {"measurement": "SA-β-gal-positive cell rate", "setting": "[4]", "result": "about 9%"}, {"measurement": "optimum concentration for proliferation", "setting": "[5]; PD45 WI38 cells, FIG. 3a", "result": 0.3, "unit": "µg/mL"}, {"measurement": "effect on proliferation, time course", "setting": "[5]; WI38 (PD45) cells, 0.3 μg/ml, seven days of incubation", "result": "promoted proliferation"}, {"measurement": "absorption", "setting": "[6]", "result": "improved absorption"}, {"measurement": "oral bioavailability", "setting": "[6]", "result": "enhanced oral bioavailability"}, {"measurement": "lamin A protein level (western blot) compared with untreated cells", "setting": "[7]", "result": "decrease in lamin A"}, {"measurement": "effect on proliferation, time course", "setting": "[8]; 2BS (PD45) cells, 0.3 μg/ml, seven days of incubation", "result": "promoted proliferation"}, {"measurement": "optimum concentration for proliferation", "setting": "[8]; PD45 2BS cells, FIG. 3a", "result": 0.3, "unit": "µg/mL"}, {"measurement": "concentration of maximum effect on progerin mRNA expression", "setting": "[9]", "result": 5, "unit": "µmol/L"}, {"measurement": "progerin mRNA expression compared with untreated cells", "setting": "[9]; [11]", "result": "dose-dependent decrease"}, {"measurement": "lamin A protein level (western blot) compared with untreated cells", "setting": "[10]", "result": "decrease in lamin A"}]}]}
